The values that follow come from ChEMBL document CHEMBL3351326, “Discovery of substituted 6-pheny-3H-pyridazin-3-one derivatives as novel c-Met kinase inhibitors” (Bioorg Med Chem Lett, 2014).

The nature of assay [1]: Cytotoxicity against human NCI-H3122 cells after 72 hrs by WST8 assay. Conditions: NCI-H3122, 72 h. (Tetrazolium assays rely on reduction of a dye to a coloured formazan, in cell work by metabolically active cells.)
The test system of a further assay is NCI-H1993. Kind of assay: Cytotoxicity against human NCI-H1993 cells after 72 hrs by WST8 assay. Conditions: NCI-H1993, 72 h.
The nature of the next assay: cells. The conditions noted are these: Homo sapiens, Hs746T, 72 h.
Assay [2] is described as follows: Cytotoxicity against human U87MG cells after 72 hrs by WST8 assay. Conditions: U-87 MG. It is filed as functional, cell-based, U-87MG ATCC.

A value given as a limit tells only on which side of the number the result lay.

Description for cells: Cytotoxicity against human Hs 746T cells after 72 hrs by WST8 assay

What is called IC50 is the concentration that inhibits the measured activity by half. Lower therefore signals greater potency. As to `CN1CCC(n2cc(-c3cnc(N4CCO[C@H](Cn5nc(-c6ccc(F)c(F)c6)ccc5=O)C4)nc3)cn2)CC1`, the IC50 in assay [1] was greater than 10000 nM; in the assay with NCI-H1993 it was 5700 nM; in “cells” it was 940 nM; in assay [2], greater than 10000 nM.
On to `O=c1ccc(-c2ccc(F)cc2)nn1C[C@@H]1CN(c2ncc(-c3cnn(C4CCN(CCO)CC4)c3)cn2)CCO1`, for which the IC50 was greater than 10000 nM in assay [1], 3800 nM in the assay on NCI-H1993, 280 nM in “cells” and greater than 10000 nM in assay [2].
As for `O=c1ccc(-c2cccc(Cl)c2)nn1C[C@@H]1CN(c2ncc(-c3cnn(C4CCNCC4)c3)cn2)CCO1`, the IC50 was greater than 10000 nM in assay [1], 3400 nM in the assay on NCI-H1993, 750 nM in “cells” and 9900 nM in assay [2].
On to `O=c1ccc(-c2cccc(C(F)(F)F)c2)nn1C[C@@H]1CN(c2ncc(-c3cnn(C4CCNCC4)c3)cn2)CCO1`, for which the half-maximal inhibitory concentration (IC50) in assay [1] is 1400 nM; in the assay on NCI-H1993 it was 1300 nM; in “cells” it was 84 nM; in assay [2], 2500 nM.
In the same order, the values of `N#Cc1cccc(-c2ccc(=O)n(C[C@@H]3CN(c4ncc(C5=CCNCC5)cn4)CCO3)n2)c1` are greater than 10000 nM, 3800 nM, 740 nM and 9700 nM.
In the same order, the values of `CN1CCC(n2cc(-c3cnc(N4CCO[C@H](Cn5nc(-c6ccc(F)c(Cl)c6)ccc5=O)C4)nc3)cn2)CC1` are 1400 nM, 1200 nM, 14 nM and 1500 nM.
On to `N#Cc1cccc(-c2ccc(=O)n(C[C@@H]3CN(c4ncc(C5=CCN(CCO)CC5)cn4)CCO3)n2)c1`, for which the IC50 is greater than 10000 nM in assay [1], 2500 nM in the assay with NCI-H1993, 210 nM in “cells” and greater than 10000 nM in assay [2].
Take `O=c1ccc(-c2cc(F)c(F)c(F)c2)nn1C[C@@H]1CN(c2ncc(-c3cnn(C4CCNCC4)c3)cn2)CCO1`: the 50% inhibitory concentration (IC50) in assay [1] is 1500 nM; with NCI-H1993, 1200 nM; in the assay “cells”, 230 nM; in assay [2], 1500 nM.
`CN1CC=C(c2cnc(N3CCO[C@H](Cn4nc(-c5cccc(C#N)c5)ccc4=O)C3)nc2)CC1`: the IC50 is greater than 10000 nM in assay [1], 4100 nM with NCI-H1993, 1200 nM in the assay “cells” and greater than 10000 nM in assay [2].
Turning to `Cn1cc(-c2cnc(N3CCO[C@H](Cn4nc(-c5cccc(C#N)c5)ccc4=O)C3)nc2)cn1`, the IC50 is greater than 1000 nM in assay [1], 10 nM in the assay with NCI-H1993, 0.7 nM in “cells” and greater than 1000 nM in assay [2].
With `CN1CCC(COc2cnc(N3CCO[C@H](Cn4nc(-c5cccc(C#N)c5)ccc4=O)C3)nc2)CC1`, the IC50 was greater than 10000 nM in assay [1], 2400 nM in the assay on NCI-H1993, 430 nM in the assay “cells” and greater than 10000 nM in assay [2].
For the compound `O=c1ccc(-c2cccc(F)c2)nn1C[C@@H]1CN(c2ncc(-c3cnn(C4CCNCC4)c3)cn2)CCO1`, the IC50 in assay [1] was 7500 nM; with NCI-H1993 it was 3500 nM; in “cells”, 220 nM; in assay [2] it was 4900 nM.
As for `N#Cc1cccc(-c2ccc(=O)n(C[C@@H]3CN(c4ncc(-c5cnn(C6CCNCC6)c5)cn4)CCO3)n2)c1`, the IC50 in assay [1] was greater than 10000 nM; with NCI-H1993 it was 110 nM; in the assay “cells”, 1.2 nM; in assay [2] it was greater than 10000 nM.
Regarding `N#Cc1cccc(-c2ccc(=O)n(C[C@@H]3CN(c4ncc(-c5cnn(CCO)c5)cn4)CCO3)n2)c1`, the concentration for half-maximal inhibition (IC50) in assay [1] is greater than 10000 nM; in the assay on NCI-H1993, 1500 nM; in “cells”, 180 nM; in assay [2], greater than 10000 nM.
Turning to `CN1CCC(n2cc(-c3cnc(N4CCO[C@H](Cn5nc(-c6cccc(F)c6)ccc5=O)C4)nc3)cn2)CC1`, the IC50 in assay [1] was 3300 nM; with NCI-H1993, 3200 nM; in “cells”, 460 nM; in assay [2], 3400 nM.
With `N#Cc1cccc(-c2ccc(=O)n(C[C@@H]3CN(c4ncc(-c5cnn(CC6CCN(CCO)CC6)c5)cn4)CCO3)n2)c1`, the IC50 in assay [1] was greater than 10000 nM; in the assay on NCI-H1993, 2100 nM; in “cells”, 3.4 nM; in assay [2] it was greater than 10000 nM.
In the case of `CN1CCC(n2cc(-c3cnc(N4CCO[C@H](Cn5nc(-c6cc(F)c(F)c(F)c6)ccc5=O)C4)nc3)cn2)CC1`, the IC50 in assay [1] worked out at 7600 nM; with NCI-H1993, 3600 nM; in “cells”, 480 nM; in assay [2] it was 9100 nM.
As to `O=c1ccc(-c2ccc(F)c(Cl)c2)nn1C[C@@H]1CN(c2ncc(-c3cnn(C4CCNCC4)c3)cn2)CCO1`, the IC50 is 1700 nM in assay [1], 790 nM with NCI-H1993, 71 nM in the assay “cells” and 1200 nM in assay [2].
As to `O=c1ccc(-c2cccc(F)c2)nn1C[C@@H]1CN(c2ncc(-c3cnn(C4CCN(CCO)CC4)c3)cn2)CCO1`, the IC50 in assay [1] was 3300 nM; with NCI-H1993, 3200 nM; in the assay “cells” it was 460 nM; in assay [2], 3400 nM.
In the case of `N#Cc1cccc(-c2ccc(=O)n(C[C@@H]3CN(c4ncc(-c5cnn(CCOC6CCCCO6)c5)cn4)CCO3)n2)c1` (some centres undefined), the concentration for half-maximal inhibition (IC50) in assay [1] is greater than 10000 nM; with NCI-H1993, 2600 nM; in “cells”, 460 nM; in assay [2], greater than 10000 nM.
For the compound `N#Cc1cccc(-c2ccc(=O)n(C[C@@H]3CN(c4ncc(-c5ccc(OCCN6CCOCC6)nc5)cn4)CCO3)n2)c1`, the IC50 was 9800 nM in assay [1], 3700 nM in the assay on NCI-H1993 and 740 nM in “cells”.
For the compound `Cn1cc(-c2cnc(N3CCO[C@H](Cn4nc(-c5ccc(OCc6ccccc6)cc5)ccc4=O)C3)nc2)cn1`, the half-maximal inhibitory concentration (IC50) in assay [1] was greater than 10000 nM; in the assay with NCI-H1993, 4100 nM; in “cells”, 3020 nM; in assay [2], 7600 nM.
In the same order, the values of `N#Cc1cccc(-c2ccc(=O)n(C[C@@H]3CN(c4ncc(-c5ccc(OCCN6CCOCC6)c(Cl)c5)cn4)CCO3)n2)c1` are greater than 10000 nM, 1200 nM, 1420 nM and 1400 nM.
In the same order, the values of `N#Cc1cccc(-c2ccc(=O)n(C[C@@H]3CN(c4ncc(-c5ccc(OCCN6CCOCC6)cc5)cn4)CCO3)n2)c1` are greater than 10000 nM, 1800 nM, 410 nM and 3400 nM.
Taken in the same sequence, the figures for `N#Cc1cccc(-c2ccc(=O)n(C[C@@H]3CN(c4ncc(-c5cnn(C6CCN(C7CCOCC7)CC6)c5)cn4)CCO3)n2)c1` were greater than 10000 nM, 230 nM, 13 nM and greater than 10000 nM.
Regarding `CN1CCN(c2ccc(-c3cnc(N4CCO[C@H](Cn5nc(-c6cccc(C#N)c6)ccc5=O)C4)nc3)cn2)CC1`, the IC50 in assay [1] is 1400 nM; in the assay with NCI-H1993 it was 1300 nM; in the assay “cells”, 650 nM; in assay [2] it was 1600 nM.
For the compound `O=c1ccc(-c2cc(F)cc(F)c2)nn1C[C@@H]1CN(c2ncc(-c3cnn(C4CCNCC4)c3)cn2)CCO1`, the IC50 in assay [1] stood at 1900 nM; with NCI-H1993, 1600 nM; in “cells” it was 450 nM; in assay [2], 3200 nM.
Take `O=c1ccc(-c2cc(F)c(F)c(F)c2)nn1C[C@@H]1CN(c2ncc(-c3cnn(C4CCN(CCO)CC4)c3)cn2)CCO1`: the IC50 in assay [1] is greater than 10000 nM; in the assay “cells” it was 190 nM; in assay [2] it was 4070 nM.
For `N#Cc1cccc(-c2ccc(=O)n(C[C@@H]3CN(c4ncc(-c5ccnc(F)c5)cn4)CCO3)n2)c1`, the 50% inhibitory concentration (IC50) is greater than 10000 nM in assay [1], 7400 nM in the assay on NCI-H1993, 7150 nM in the assay “cells” and greater than 10000 nM in assay [2].
